Measured values from BigSolDB 2.1.

CC(=O)Nc1ccc(O)cc1
solubility (mole fraction)
Settings | 293.15 K | 298.15 K | 303.15 K | 308.15 K | 313.15 K
in ethanol | 0.0505 | 0.0546 | 0.062 | 0.067 | 0.0705
in propylene glycol | 0.0483 | 0.0516 | 0.0603 | 0.0664 | 0.0752
